For the test, the target named is Rho GTPase-activating protein 1 (Homo sapiens) (UniProt Q07960). Briefly: ARHGAP1 GAP activity inhibitors on Rac1 – biochemical, Biomol green phosphate read-out, selectivity assay for MgcRacGAP inhibitor project, dose response (AID 652148). As to conditions: p50RhoGAP-stimulated Rac1 GTP hydrolysis; for inhibition: at 100 µM (top of the series).

The source made the active and inactive calls. No rule for the calls is given here.

Chain of Rho GTPase-activating protein 1 (Homo sapiens) (Q07960 whole entry, looked up): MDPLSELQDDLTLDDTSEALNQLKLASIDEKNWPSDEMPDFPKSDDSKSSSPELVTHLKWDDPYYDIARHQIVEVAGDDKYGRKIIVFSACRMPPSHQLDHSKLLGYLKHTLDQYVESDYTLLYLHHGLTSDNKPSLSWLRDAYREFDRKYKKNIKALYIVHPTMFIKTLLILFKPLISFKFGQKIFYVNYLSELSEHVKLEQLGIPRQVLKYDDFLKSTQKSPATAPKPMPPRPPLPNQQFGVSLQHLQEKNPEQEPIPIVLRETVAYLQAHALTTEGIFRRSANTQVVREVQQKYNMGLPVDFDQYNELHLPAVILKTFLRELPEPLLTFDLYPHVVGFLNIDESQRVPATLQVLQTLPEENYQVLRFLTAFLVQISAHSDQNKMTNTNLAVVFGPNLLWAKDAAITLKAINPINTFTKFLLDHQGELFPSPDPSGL

As for `CN(C)c1ncc(C2=C(Cl)C(=O)C(N3CCCC3)=C(Cl)C2=O)s1`, the IC50 amounted to 10.7 µM. The same measure, in the same setting: next, `Cn1ccc(=Nc2ccc(NC(=O)c3ccc(N=c4ccn(C)c5ccc([N+](=O)[O-])cc45)cc3)cc2)cc1`: 22.2 µM.

`Cc1ccc(C)c(-n2sc3ccc(F)cc3c2=O)c1`: the inhibition entry is “inactive”. Same read-out and setting: next, `C[n+]1c(-c2ccc(C=NNC(=O)c3ccc(C(=O)NN=Cc4ccc(-c5cn6ccccc6[n+]5C)cc4)cc3)cc2)cn2ccccc21`: “inactive”; `O=c1c2ccc(F)cc2sn1-c1ccccc1`: “inactive”. For the molecule `CN(C)c1ccc(/C=C/c2cc[n+](C)c3ccccc23)cc1`, the inhibition entry is “inactive”.

Turning to `O=C(O)c1cc(N2N=C(C(F)(F)F)/C(=C/C=C/c3ccco3)C2=O)ccc1Cl`, the IC50 is 4.68 µM.

Take `COc1ccc(Nc2ccc3ccccc3c2)cc1`: the inhibition result was “inactive”. On to `O=c1c2ccccc2sn1-c1cccc(Cl)c1`, for which the IC50 came out at 11.2 µM. In the case of `O=C1C(SCCO)=C(SCCO)C(=O)c2ccccc21`, the inhibition entry is “inactive”. In the case of `O=C1C(Cl)=C(NC(=O)c2ccccc2)C(=O)C(Cl)=C1NC(=O)c1ccccc1`, the IC50 is 46 µM. Same read-out and setting: next, `CCN(CC)c1ccc(C(=C2C=CC(=[N+](CC)CC)C=C2)c2ccc(N(CC)CC)cc2)cc1`: 22.1 µM. On to `Cc1ccc(-n2sc3cc(F)ccc3c2=O)c(C)c1`, for which the inhibition entry is “inactive”. Regarding `CC1OC(CC(=O)O)CC2=C1C(=O)c1c(O)cccc1C2=O` (stereo unspecified), the 50% inhibitory concentration (IC50) was 8.81 µM. On to `COc1ccc(/C=N/Nc2cc(C)nc3ccc(OC)cc23)c(OC)c1`, for which the inhibition entry is “inactive”. Turning to `CCN1CCN(Cc2ccc(NC(=O)c3ccc(C)c(/C=C/c4cnc(Nc5cc(N6CCNCC6)nc(C)n5)cn4)c3)cc2C(F)(F)F)CC1`, the IC50 was determined as 54.1 µM.

In the case of `O=C(O)c1cc(N2C(=O)C=CC2=O)cc(N2C(=O)C=CC2=O)c1`, the inhibition entry is “inactive”. Regarding `O=c1c2ccccc2sn1-c1ccc(F)cc1`, the IC50 stood at 35.4 µM. The same measure, in the same setting: the result for `CN(C)c1nc(=NCc2cccs2)ss1` reads 14.7 µM. On the same count and under the same terms, the result for `O=C1C(=Cc2ccco2)CCC1=Cc1ccco1` reads 26.8 µM; that for `O=C(Nc1ccccc1Cl)/C(Cl)=C(\Cl)S(=O)c1ccccc1` (stereo unspecified), 20.7 µM. For the molecule `O=c1c2ccccc2sn1-c1ccccc1F`, the inhibition result was “inactive”. With `O=C1C=CC(=O)c2c(O)c(N3CCN(CCO)CC3)c(Cl)c(O)c21`, the IC50 was determined as 36.5 µM. On to `Cc1c(Cl)sn(-c2ccc(Cl)cc2)c1=O`, for which the inhibition entry was “inactive”. In the case of `O=C(O)c1cccc(-n2sc3ccccc3c2=O)c1`, the IC50 came to 10.3 µM. Still for that read-out and setting: next, `CSc1nc(N)c(N=Nc2ccc([As](=O)(O)O)cc2)c(=O)[nH]1`: 3.09 µM. On the same count and under the same terms, the result for `Cc1cc(C)c2c(=N)c3ccccc3n(CCCCCCCCn3c4ccccc4c(=N)c4c(C)cc(C)nc43)c2n1` reads 22.2 µM; that for `O=c1c2ccccc2sn1-c1ccc(Cl)cc1`, 12.3 µM. Same read-out and setting: the result for `COc1ccc(-n2sc3ccc(F)cc3c2=O)cc1` reads 15 µM. For the molecule `O=c1c2ccccc2sn1-c1ccc(Cl)cc1Cl`, the inhibition entry was “inactive”.

For the molecule `Cc1cc(N)c2cc(NC(=O)/C=C/c3ccccc3Cl)ccc2n1`, the inhibition result was “inactive”. On the same count and under the same terms, next, `COc1ccc(-n2sc3ccccc3c2=O)cc1`: “inactive”; `CC1=NNC(=O)C1Br` (stereo unspecified): “inactive”.

For the molecule `O=c1c2cc(F)ccc2sn1-c1ccccc1Cl`, the half-inhibitory concentration (IC50) came to 24.5 µM. Same read-out and setting: next, `O=c1c2cc(F)ccc2sn1-c1ccccc1`: 2.06 µM; `O=C1NC(=S)N(c2ccccc2)C(=O)/C1=C/c1ccco1`: 3.99 µM. As to `O=c1c2sc3ccccc3c2[nH]c(=S)n1CCN1CCOCC1`, the inhibition result was “inactive”. `Nc1ccc(OCc2ccco2)cc1`: the inhibition entry was “inactive”. With `O=C1C=CC(=O)N1c1ccccc1N1C(=O)C=CC1=O`, the half-maximal inhibitory concentration (IC50) came to 15.7 µM. Still for that read-out and setting: the result for `O=C1C=CC(=O)c2c(O)c(N3CCN(CCOCCO)CC3)c(Br)c(O)c21` reads 32.6 µM; that for `O=C(O)C1CSC(c2ccco2)N1` (stereo unspecified), 16.1 µM. For `Nc1n[nH]c(=S)n1/N=C1/C(=O)Nc2ccccc21`, the inhibition entry is “inactive”. As to `CC(=O)Nc1ccc2sn(-c3ccccc3)c(=O)c2c1`, the half-maximal inhibitory concentration (IC50) was found to be 22.3 µM. Take `COc1ccc(NC2CCCN(C(=O)C3(C)CCCCC3)C2)cc1` (stereo unspecified): the inhibition entry was “inactive”.

Take `CN(C)c1ccc(C=c2c3cc(O)ccc3n3c2cc(-c2ccccc2)[n+]3C)cc1`: the IC50 is 36.2 µM. For the molecule `COC(=O)c1cccc(-n2sc3ccccc3c2=O)c1`, the inhibition entry is “inactive”.

The values above are taken from PubChem BioAssay AID652148 (Molecular Libraries Program, Specialized Chemistry Center, …, 2013).
